From patent US11497212B2, “Substituted thiophenyl uracils, salts thereof and the use thereof as herbicidal agents” (Syngenta Crop Protection AG, priority 2017, dated 2022)

Columns and labels:
Type in all cases: in vivo
[1] = system: Abutilon theophrasti; assay: Herbicidal action post-emergence (greenhouse pot trial); conditions: scored visually after about 3 weeks vs untreated controls
How it was run: (§1)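 Visual efficacy score after ~3 wk in greenhouse vs untreated control; 100% = plants dead, 0% = like control. Spray: aqueous suspension/emulsion of WP or EC, 0.5% additive, 600 L/ha water, ≤80 g/ha. Plants in sandy loam pots, treated at one-leaf stage, 2–3 wk post-sowing.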

[2] = system: Amaranthus retroflexus; assay: as above; conditions: application rate 20 g/ha, scored visually after about 3 weeks vs untreated controls
How it was run: as §1

[3] = system: Digitaria sanguinalis; assay: as above; conditions: application rate 20 g/ha
How it was run: as §1

[4] = system: Echinochloa crus-galli; assay: as above; conditions: application rate 20 g/ha, scored visually after about 3 weeks vs untreated controls
How it was run: as §1

[5] = system: Hordeum murinum; assay: as above; conditions: application rate 20 g/ha, scored visually after about 3 weeks vs untreated controls
How it was run: as §1

[6] = system: Matricaria inodora; assay: as above; conditions: scored visually after about 3 weeks vs untreated controls
How it was run: as §1

[7] = system: Pharbitis purpurea; assay: as above
How it was run: as §1

[8] = system: Polygonum convolvulus; assay: as above; conditions: scored visually after about 3 weeks vs untreated controls
How it was run: as §1

[9] = system: Setaria viridis; assay: as above; conditions: scored visually after about 3 weeks vs untreated controls
How it was run: as §1

[10] = system: Stellaria media; assay: as above; conditions: application rate 20 g/ha, scored visually after about 3 weeks vs untreated controls
How it was run: as §1

[11] = system: Veronica persica; assay: as above; conditions: application rate 20 g/ha
How it was run: as §1

[12] = system: Viola tricolor; assay: as above
How it was run: as §1

[13] = system: Triticum aestivum; assay: Crop compatibility post-emergence (greenhouse pot trial)
How it was run: (§2)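 Visual % rating about 3 weeks post-treatment against untreated plants (100% dead, 0% unaffected). Post-emergence spray of aqueous WP/EC preparations with 0.5% additive at 600 L/ha water, applied at one-leaf stage to greenhouse pot-grown crops in sandy loam.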

[14] = system: Oryza sativa; assay: as above; conditions: application rate 20 g/ha
How it was run: as §2

[15] = system: Zea mays; assay: as above
How it was run: as §2

[16] = system: Abutilon theophrasti; assay: Herbicidal action pre-emergence (greenhouse pot trial); conditions: scored after about 3 weeks
Excerpt: (§3) Seeds of mono- and dicotyledonous weeds and crop plants were laid out in plastic or organic plant pots and covered with soil. The compounds of the invention formulated in the form of wettable powders (WP) or emulsion concentrates (EC) were then applied to the surface of the covering soil as an aqueous suspension or emulsion with addition of 0.5% additive at a water application rate equivalent to 600 L/ha. After the treatment, the pots were placed in a greenhouse and kept under good growth conditions for the test plants. After about 3 weeks, the efficacy of the preparations was scored visually as a percentage by comparison with untreated controls. For example, 100% efficacy=plants have died, 0% efficacy=like control plants. Tables B1 to B16 below show the efficacies of selected compounds of the general formula (I) according to tables I.1 to I.60 on various harmful plants and an application rate corresponding to 320 g/ha or lower that were obtained by the aforementioned trial method.

[17] = system: Amaranthus retroflexus; assay: as above; conditions: scored after about 3 weeks
Excerpt: as §3

[18] = system: Digitaria sanguinalis; assay: as above; conditions: application rate 80 g/ha
Excerpt: as §3

[19] = system: Matricaria inodora; assay: as above; conditions: scored after about 3 weeks
Excerpt: as §3

[20] = system: Pharbitis purpurea; assay: as above
Excerpt: as §3

[21] = system: Setaria viridis; assay: as above; conditions: scored after about 3 weeks
Excerpt: as §3

[22] = system: Stellaria media; assay: as above; conditions: scored after about 3 weeks
Excerpt: as §3

[23] = system: Veronica persica; assay: as above
Excerpt: as §3

[24] = system: Viola tricolor; assay: as above; conditions: scored after about 3 weeks
Excerpt: as §3

[25] = system: Zea mays; assay: Crop compatibility pre-emergence (greenhouse pot trial); conditions: application rate 80 g/ha, effect vs untreated controls
Excerpt: as §3, with “plants.” for “plants. Tables B1 to B16 below show the efficacies of selected compounds of the general formula (I) according to tables I.1 to I.60 on various harmful plants and an application rate corresponding to 320 g/ha or lower that were obtained by the aforementioned trial method.”
(§4) Crop compatibilities were also scored correspondingly.
(§5) The effects observed are reported here on selected crop plants by comparison with the untreated controls (values in %).

[26] = system: Glycine max; assay: Crop compatibility post-emergence (greenhouse pot trial)
How it was run: as §2

[27] = system: Alopecurus myosuroides; assay: Herbicidal action pre-emergence (greenhouse pot trial); conditions: application rate 320 g/ha, scored after about 3 weeks
Excerpt: as §3

[28] = system: Avena fatua; assay: as above; conditions: application rate 320 g/ha
Excerpt: as §3

[29] = system: Echinochloa crus-galli; assay: as above; conditions: application rate 320 g/ha, scored after about 3 weeks
Excerpt: as §3

[30] = system: Lolium rigidum; assay: as above; conditions: application rate 320 g/ha
Excerpt: as §3

[31] = system: Glycine max; assay: Crop compatibility pre-emergence (greenhouse pot trial); conditions: application rate 80 g/ha, effect vs untreated controls
Excerpt: as §3, with “plants.” for “plants. Tables B1 to B16 below show the efficacies of selected compounds of the general formula (I) according to tables I.1 to I.60 on various harmful plants and an application rate corresponding to 320 g/ha or lower that were obtained by the aforementioned trial method.”
as §4, §5

[32] = system: Alopecurus myosuroides; assay: Herbicidal action post-emergence (greenhouse pot trial); conditions: application rate 20 g/ha, scored visually after about 3 weeks vs untreated controls
How it was run: as §1

## CC(Sc1cc(-n2c(=O)cc(C(F)(F)F)n(C)c2=O)c(F)cc1Cl)C(=O)OCCCSC(F)(F)F (stereo not shown) [I.1-48]
[1]; application rate 20 g/ha
  Abutilon theophrasti (Efficacy in %): 100%
[2]
  Amaranthus retroflexus (Efficacy in %): 100%
[3]
  Digitaria sanguinalis (Efficacy in %): 100%
[4]
  Echinochloa crus-galli (Efficacy in %): 100%
[5]
  Hordeum murinum (Efficacy in %): 80%
[6]; application rate 20 g/ha
  Matricaria inodora (Efficacy in %): 100%
[7]; application rate 20 g/ha
  Pharbitis purpurea (Efficacy in %): 100%
[8]; application rate 20 g/ha
  Polygonum convolvulus (Efficacy in %): 100%
[9]; application rate 20 g/ha
  Setaria viridis (Efficacy in %): 100%
[10]
  Stellaria media (Efficacy in %): 100%
[11]
  Veronica persica (Efficacy in %): 100%
[12]; application rate 20 g/ha
  Viola tricolor (Efficacy in %): 100%
[13]; application rate 5 g/ha
  Triticum aestivum (Efficacy in %): 10%

## CC(Sc1cc(-n2c(=O)cc(C(F)(F)F)n(C)c2=O)c(F)cc1Cl)C(=O)OCC1CCSC1 (stereo not shown) [I.1-82]
[1]; application rate 20 g/ha
  Abutilon theophrasti (Efficacy in %): 100%
[2]
  Amaranthus retroflexus (Efficacy in %): 100%
[3]
  Digitaria sanguinalis (Efficacy in %): 100%
[4]
  Echinochloa crus-galli (Efficacy in %): 100%
[6]; application rate 20 g/ha
  Matricaria inodora (Efficacy in %): 100%
[7]; application rate 20 g/ha
  Pharbitis purpurea (Efficacy in %): 100%
[8]; application rate 20 g/ha
  Polygonum convolvulus (Efficacy in %): 100%
[9]; application rate 20 g/ha
  Setaria viridis (Efficacy in %): 80%
[10]
  Stellaria media (Efficacy in %): 80%
[11]
  Veronica persica (Efficacy in %): 100%
[12]; application rate 20 g/ha
  Viola tricolor (Efficacy in %): 100%
[14]
  Oryza sativa (Efficacy in %): 10%
[13]; application rate 5 g/ha
  Triticum aestivum (Efficacy in %): 0%
[15]; application rate 20 g/ha
  Zea mays (Efficacy in %): 20%
[16]; application rate 80 g/ha
  Abutilon theophrasti (Efficacy in %): 100%
[17]; application rate 80 g/ha
  Amaranthus retroflexus (Efficacy in %): 100%
[18]
  Digitaria sanguinalis (Efficacy in %): 80%
[19]; application rate 80 g/ha
  Matricaria inodora (Efficacy in %): 100%
[20]; application rate 80 g/ha
  Pharbitis purpurea (Efficacy in %): 100%
[21]; application rate 80 g/ha
  Setaria viridis (Efficacy in %): 100%
[22]; application rate 80 g/ha
  Stellaria media (Efficacy in %): 100%
[23]; application rate 80 g/ha
  Veronica persica (Efficacy in %): 100%
[24]; application rate 80 g/ha
  Viola tricolor (Efficacy in %): 100%
[25]
  Zea mays (Efficacy in %): 0%

## CC(Sc1cc(-n2c(=O)cc(C(F)(F)F)n(C)c2=O)c(F)cc1Cl)C(=O)NC1(C#N)CCSC1 (stereo not shown) [I.1-340]
[1]; application rate 80 g/ha
  Abutilon theophrasti (Efficacy in %): 100%
[6]; application rate 80 g/ha
  Matricaria inodora (Efficacy in %): 100%
[7]; application rate 80 g/ha
  Pharbitis purpurea (Efficacy in %): 100%
[8]; application rate 80 g/ha
  Polygonum convolvulus (Efficacy in %): 100%
[9]; application rate 80 g/ha
  Setaria viridis (Efficacy in %): 80%
[12]; application rate 80 g/ha
  Viola tricolor (Efficacy in %): 100%
[26]; application rate 20 g/ha
  Glycine max (Efficacy in %): 20%
[14]
  Oryza sativa (Efficacy in %): 10%
[13]; application rate 20 g/ha
  Triticum aestivum (Efficacy in %): 20%
[15]; application rate 80 g/ha
  Zea mays (Efficacy in %): 0%
[16]; application rate 320 g/ha
  Abutilon theophrasti (Efficacy in %): 100%
[27]
  Alopecurus myosuroides (Efficacy in %): 90%
[17]; application rate 320 g/ha
  Amaranthus retroflexus (Efficacy in %): 100%
[28]
  Avena fatua (Efficacy in %): 80%
[29]
  Echinochloa crus-galli (Efficacy in %): 100%
[30]
  Lolium rigidum (Efficacy in %): 100%
[19]; application rate 320 g/ha
  Matricaria inodora (Efficacy in %): 100%
[20]; application rate 320 g/ha
  Pharbitis purpurea (Efficacy in %): 100%
[21]; application rate 320 g/ha
  Setaria viridis (Efficacy in %): 100%
[22]; application rate 320 g/ha
  Stellaria media (Efficacy in %): 100%
[23]; application rate 320 g/ha
  Veronica persica (Efficacy in %): 100%
[24]; application rate 320 g/ha
  Viola tricolor (Efficacy in %): 100%
[31]
  Glycine max (Efficacy in %): 20%
[25]
  Zea mays (Efficacy in %): 0%

## CC(C)CC(Sc1cc(-n2c(=O)cc(C(F)(F)F)n(C)c2=O)c(F)cc1Cl)C(=O)NCC1CCCO1 (stereo not shown) [I.4-221]
[1]; application rate 20 g/ha
  Abutilon theophrasti (Efficacy in %): 100%
[2]
  Amaranthus retroflexus (Efficacy in %): 100%
[3]
  Digitaria sanguinalis (Efficacy in %): 100%
[4]
  Echinochloa crus-galli (Efficacy in %): 80%
[5]
  Hordeum murinum (Efficacy in %): 80%
[6]; application rate 20 g/ha
  Matricaria inodora (Efficacy in %): 100%
[7]; application rate 20 g/ha
  Pharbitis purpurea (Efficacy in %): 100%
[8]; application rate 20 g/ha
  Polygonum convolvulus (Efficacy in %): 100%
[9]; application rate 20 g/ha
  Setaria viridis (Efficacy in %): 100%
[10]
  Stellaria media (Efficacy in %): 80%
[11]
  Veronica persica (Efficacy in %): 100%
[12]; application rate 20 g/ha
  Viola tricolor (Efficacy in %): 100%
[26]; application rate 5 g/ha
  Glycine max (Efficacy in %): 20%

## CC(C)C(Sc1cc(-n2c(=O)cc(C(F)(F)F)n(C)c2=O)c(F)cc1Cl)C(=O)OCC1CCCO1 (stereo not shown) [I.6-71]
[1]; application rate 20 g/ha
  Abutilon theophrasti (Efficacy in %): 100%
[32]
  Alopecurus myosuroides (Efficacy in %): 80%
[2]
  Amaranthus retroflexus (Efficacy in %): 100%
[3]
  Digitaria sanguinalis (Efficacy in %): 100%
[4]
  Echinochloa crus-galli (Efficacy in %): 90%
[5]
  Hordeum murinum (Efficacy in %): 80%
[6]; application rate 20 g/ha
  Matricaria inodora (Efficacy in %): 100%
[7]; application rate 20 g/ha
  Pharbitis purpurea (Efficacy in %): 100%
[8]; application rate 20 g/ha
  Polygonum convolvulus (Efficacy in %): 100%
[9]; application rate 20 g/ha
  Setaria viridis (Efficacy in %): 100%
[10]
  Stellaria media (Efficacy in %): 100%
[11]
  Veronica persica (Efficacy in %): 100%
[12]; application rate 20 g/ha
  Viola tricolor (Efficacy in %): 100%
[13]; application rate 20 g/ha
  Triticum aestivum (Efficacy in %): 20%
